# Legend:
# isolated aortic ring [1] = experiment: contraction of isolated rabbit aortic ring stimulated by noradrenaline (alpha-receptor); conditions: Oryctolagus cuniculus, isolated aortic ring from rabbits, read-out: IC50 b (active compound concentration at which the contraction of the aortic ring is inhibited by 50%)
# From the text: (§1) The specific calcium-antagonistic action of the compounds according to the invention is examined in a test on isolated rabbit vessels (aorta). In this test, contractions of the vascular muscle are caused in vitro by stimulation with KCl or by noradrenaline. KCl causes contractions due to the depolarization-dependent inwards flow of calcium ions.
# (§2) These contractions are inhibited by calcium-antagonistic drugs as a function of the dose. Noradrenaline causes contractions by stimulation of the vascular alpha-receptors and the resulting release of calcium ions from the intracellular stores. The noradrenaline-induced contractions are not inhibited by specific calcium antagonists. In contrast, antagonists of the alpha-adrenoreceptors inhibit only the noradrenaline-induced contraction.
# (§3) Table 1: Active compound concentration at which the contraction of the aortic ring is inhibited by 50% (IC50)
# (§4) Isolated aortic ring from rabbits, stimulated
# isolated aortic ring [2] = experiment: contraction of isolated rabbit aortic ring stimulated by KCl depolarization (calcium-antagonistic action); conditions: Oryctolagus cuniculus, isolated aortic ring from rabbits, read-out: IC50 a (active compound concentration at which the contraction of the aortic ring is inhibited by 50%)
# From the text: as §1, §2, §3, §4
# (a) by KCl depolarization or […]
# hypertensive rats = experiment: arterial blood pressure of conscious spontaneously hypertensive rats (tail cuff) after oral administration; format: in vivo, rat (spontaneously hypertensive rats of the Okamoto strain); conditions: Rattus norvegicus, peroral, read-out: ED20 (reduction in blood pressure in hypertensive rats by 20 mm Hg)
# Method: The compounds according to the invention are also active after oral administration. The arterial blood pressure of conscious rats with hypertension of genetic origin ("spontaneously hypertensive rats" of the Okamoto strain) is measured bloodlessly with a "tail cuff" at defined intervals of time after administration of the substance. The substances to be tested are suspended in a Tylose suspension and administered intragastrally ("orally") in various doses by means of a stomach tube. The compounds according to the invention reduce the arterial blood pressure of hypertensive rats in a clinically relevant dosage (see Table 3).
# Table 3: Reduction in blood pressure in hypertensive rats by 20 mm Hg (ED20)
# anaesthetized cats [3] = experiment: vein volume of an extremity by plethysmography with simultaneous arterial blood pressure recording in anaesthetized cats; format: in vivo, cat; conditions: Felis catus, iv; anaesthetized cats (ketamine), i.v., in comparison with the reference sodium nitroprusside; read-out: Dose giving significant increase in vein capacity
# Method: The vein volume of an extremity is measured by plethysmography on anaesthetized cats (ketamine). The arterial blood pressure is also recorded at the same time. Calcium-antagonistic DHP derivatives known hitherto reduce the arterial blood pressure and reduce the vein volume by reflectory vein constriction.
# Table 2: Significant increase in vein capacity in anaesthetized cats in comparison with the reference active substance sodium nitroprusside.
# anaesthetized cats [4] = conditions: statement on known substances; in words; cited from earlier work
SMILES,IC50 (isolated aortic ring [1]) [µg/mL],IC50 (isolated aortic ring [2]) [µg/mL],ED (20 mm Hg) (hypertensive rats) [mg/kg],minimal effective dose (anaesthetized cats [3]) [mg/kg],vein volume (known substances) (anaesthetized cats [4])
"COC(=O)C1=C(C)NC(C)=C(C(=O)OCCCCCCNCCN(Cc2ccccc2)C(C)COc2ccccc2)C1c1cccc([N+](=O)[O-])c1 (stereo not drawn) [Example 1, 3-Methyl 5-{6-[2-[N-benzyl-N-(2-phenoxy-1-methylethyl)amino]ethylamino]hexyl}1,4-dihydro-2,6-dimethyl-4-(3-nitrophenyl)-pyridine-3,5-dicarboxylate]",> 10,0.23,,,
"COC(=O)C1=C(C)NC(C)=C(C(=O)OCCCCCCN(CCN(Cc2ccccc2)C(C)COc2ccccc2)CCN(Cc2ccccc2)C(C)COc2ccccc2)C1c1cccc([N+](=O)[O-])c1 (stereo not drawn) [Example 2, 3-Methyl 5-{6-[bis-[2-[N-benzyl-N-(2-phenoxy-1-methylethyl)amino]ethyl]amino]hexyl}1,4-dihydro-2,6-dimethyl-4-(3-nitrophenyl)-pyridine-3,5-dicarboxylate]",3,0.9,,,
"CC1=C(C(=O)OCCN(CCN(Cc2ccccc2)C(C)COc2ccccc2)CCN(Cc2ccccc2)C(C)COc2ccccc2)C(c2cccc([N+](=O)[O-])c2)C(C(=O)OC(C)C)=C(C)N1 (stereo not drawn) [Example 4, 3-Isopropyl 5-(2-[bis-[2-[N-benzyl-N-(2-phenoxy-1-methylethyl)amino]ethyl]amino]ethyl}1,4-dihydro-2,6-dimethyl-4-(3-nitrophenyl)-pyridine-3,5-dicarboxylate]",5,0.4,,,
"COc1ccc2c(c1OC)CCN1CCC(NCCCOC(=O)C3=C(C)NC(C)=C(C(=O)OC(C)C)C3c3cccc([N+](=O)[O-])c3)CC21 (stereo not drawn) [Example 7, 3-Isopropyl 5-[3-(1,3,4,6,7,11b-hexahydro-8,9-dimethoxy-2H-benzo[a]quinolizin-2-yl-amino)propyl]1,4-dihydro-2,6-dimethyl-4-(3-nitrophenyl)pyridine-3,5-dicarboxylate]",1.4,0.5,31.5,,
"COc1ccc2c(c1OC)CCN1CCC(NCCOC(=O)C3=C(C)NC(C)=C(C(=O)OC(C)C)C3c3cccc([N+](=O)[O-])c3)CC21 (stereo not drawn) [Example 8, 3-Isopropyl 5-[2-(1,3,4,6,7,11b-hexahydro-8,9-dimethoxy-2H-benzo[a]quinolizin-2-yl-amino)ethyl]1,4-dihydro-2,6-dimethyl-4-(3-nitrophenyl)pyridine-3,5-dicarboxylate]",1.6,0.3,31.5,,
"COc1ccc2c(c1)CCN1CCC(NCCOC(=O)C3=C(C)NC(C)=C(C(=O)OC(C)C)C3c3cccc([N+](=O)[O-])c3)CC21 (stereo not drawn) [Example 9, 3-Isopropyl 5-[2-(1,3,4,6,7,11b-hexahydro-9-methoxy-2H-benzo[a]quinolizin-2-yl)amino]ethyl 1,4-dihydro-2,6-dimethyl-4-(3-nitrophenyl)pyridine-3,5-dicarboxylate]",,,,1,
"COC(=O)C1=C(C)NC(C)=C(C(=O)OCCNCC2COc3ccccc3O2)C1c1cccc([N+](=O)[O-])c1 (stereo not drawn) [Example 13, 3-Methyl 5-[2-(1,4-benzodioxan-2-yl-methylamino)ethyl]1,4-dihydro-2,6-dimethyl-4-(3-nitrophenyl)pyridine-3,5-dicarboxylate]",0.7,0.08,3,,
Cc1ccc(N(CC2=NCCN2)c2cccc(O)c2)cc1 [phentolamine],,,,,increase in the vein volume
COC(=O)[C@@H]1[C@H]2C[C@H]3c4[nH]c5ccccc5c4CCN3C[C@@H]2CC[C@@H]1O [yohimbine],,,,,increase in the vein volume

# Second part, led by results:
IC50 (isolated aortic ring [1]) [µg/mL],IC50 (isolated aortic ring [2]) [µg/mL],SMILES,ED (20 mm Hg) (hypertensive rats) [mg/kg],minimal effective dose (anaesthetized cats [3]) [mg/kg],vein volume (known substances) (anaesthetized cats [4])
> 10,0.23,"CC1=C(C(=O)OCCNCCN(Cc2ccccc2)C(C)COc2ccccc2)C(c2cccc([N+](=O)[O-])c2)C(C(=O)OC(C)C)=C(C)N1 (stereo not drawn) [Example 3, 3-Isopropyl 5-{2-[2-[N-benzyl-N-(2-phenoxy-1-methylethyl)amino]ethylamino]ethyl}1,4-dihydro-2,6-dimethyl-4-(3-nitrophenyl)pyridine-3,5-dicarboxylate]",,,
0.36,0.26,COC(=O)C1=C(C)NC(C)=C(C(=O)OCCNC2CCN3CCc4c(ccc(OC)c4OC)C3C2)C1c1cccc([N+](=O)[O-])c1 (stereo not drawn) [Example 6],1,,
0.18,0.23,"COC(=O)C1=C(C)NC(C)=C(C(=O)OCCN(C)CC2COc3ccccc3O2)C1c1cccc([N+](=O)[O-])c1 (stereo not drawn) [Example 11, 3-Methyl 5-{2-[N-(1,4-benzodioxan-2-yl-methyl)-N-methylamino]ethyl}1,4-dihydro-2,6-dimethyl-4-(3-nitrophenyl)pyridine-3,5-dicarboxylate]",3,0.1,
0.4,0.016,"CC1=C(C(=O)OCCNCC2COc3ccccc3O2)C(c2cccc([N+](=O)[O-])c2)C(C(=O)OC(C)C)=C(C)N1 (stereo not drawn) [Example 12, 3-Isopropyl 5-[2-(1,4-benzodioxan-2-yl-methylamino)ethyl]1,4-dihydro-2,6-dimethyl-4-(3-nitrophenyl)pyridine-3,5-dicarboxylate]",,0.1,

# Source: US4950676A, “Amino-esters of dihydropyridines, and their use as circulatory agents for treating ischaemic heart diseases” (Bayer Aktiengesellschaft, priority 1986, dated 1990)
